Measured values as given in US20190240210A1, “Treatment Method by Combined Use of MDM2 Inhibitor and DNA Methyltransferase Inhibitor” (DAIICHI SANKYO COMPANY, LIMITED, priority 2016, published 2019).

Tests used:
[1] = test system: human acute myeloid leukemia cell line MOLM-13; test: In vivo effect of combined use of Compound A and decitabine on subcutaneous MOLM-13 tumors in NOD-SCID mice (Test Example 2); settings: for TGI (%): 17 days after tumor inoculation
Protocol: Human acute myeloid leukemia cell line MOLM-13 cells were suspended to 5×10^7 cells/mL using phosphate-buffered saline. 0.1 mL of the prepared cell suspension was subcutaneously transplanted to each NOD-SCID mouse (male, 6 weeks old). […] For a combined use group, 25 mg/kg or 50 mg/kg Compound A and 1 mg/kg or 50 mg/kg decitabine were administered sequentially. […] The major axis (mm) and minor axis (mm) of tumor were measured over time using an electronic digital caliper. […] In addition, the results of the last body weight measurement were used in dose calculation. […] A: Average tumor volume of the compound-administered group on the date of assessment (*) B: Average tumor volume of the untreated control group on the date of assessment (*) *: The tumor volume was calculated according to ½×[Major axis of tumor]×[Minor axis of tumor]×[Minor axis of tumor].

[2] = Body weight change of MOLM-13 tumor-bearing NOD-SCID mice, Compound A and decitabine (Test Example 2); type: in vivo, mouse
Protocol: (§1) Human acute myeloid leukemia cell line MOLM-13 cells were suspended to 5×10^7 cells/mL using phosphate-buffered saline. 0.1 mL of the prepared cell suspension was subcutaneously transplanted to each NOD-SCID mouse (male, 6 weeks old). On 6 days after the tumor inoculation, after confirmation that the average tumor volume exceeded 100 mm^3, the mice were grouped on the basis of their tumor volume values. 25 mg/kg or 50 mg/kg Compound A was orally administered by forced administration to the mice. 1 mg/kg or 50 mg/kg decitabine was intravenously administered to the tails of the mice. For a combined use group, 25 mg/kg or 50 mg/kg Compound A and 1 mg/kg or 50 mg/kg decitabine were administered sequentially. The administration of Compound A was performed once a day for 5 consecutive days (6 to 10 days after the tumor inoculation) from the date of grouping (6 days after the tumor inoculation), and after a 2-day drug holiday, performed once a day for 4 consecutive days (13 to 16 days after the tumor inoculation). The administration of decitabine to the 50 mg/kg group was performed at the date of grouping (6 days after the tumor inoculation), and the administration thereof to the 1 mg/kg group was performed once a day for 5 consecutive days (6 to 10 days after the tumor inoculation) from the date of grouping (6 days after the tumor inoculation). The major axis (mm) and minor axis (mm) of tumor were measured over time using an electronic digital caliper. Tumor growth inhibition % (TGI %) on the date of assessment (17 days after the tumor inoculation) calculated according to calculation formula (4) shown below was used in evaluation. Also, the body weights were measured over time using an automatic balance for small animals, and body weight change % was calculated according to calculation formula (5) shown below to study the influence of drug administration on the body weights. In addition, the results of the last body weight measurement were used in dose calculation.
(§2) Body weight change (%)=Average body weight change % of the individuals (5)
(§3) Body weight change % of each individual=[…]
(§4) BWn: Body weight on day n
(§5) BWs: Body weight on the start day of administration

[3] = test system: human acute myeloid leukemia cell line MOLM-13; test: In vivo effect of combined use of Compound A and azacitidine on subcutaneous MOLM-13 tumors in NOD-SCID mice (Test Example 1); settings: for TGI (%): 17 days after tumor inoculation
Protocol: Human acute myeloid leukemia cell line MOLM-13 cells were suspended to 5×10^7 cells/mL using phosphate-buffered saline. 0.1 mL of the prepared cell suspension was subcutaneously transplanted to each NOD-SCID mouse (male, 6 weeks old). […] The major axis (mm) and minor axis (mm) of tumor were measured over time using an electronic digital caliper. […] In addition, the results of the last body weight measurement were used in dose calculation. […] A: Average tumor volume of the compound-administered group on the date of assessment (*) B: Average tumor volume of the untreated control group on the date of assessment (*) *: The tumor volume was calculated according to ½×[Major axis of tumor]×[Minor axis of tumor]×[Minor axis of tumor].

[4] = Body weight change of MOLM-13 tumor-bearing NOD-SCID mice, Compound A and azacitidine (Test Example 1); type: in vivo, mouse
Protocol: as §1, with “the mice. 2.5 mg/kg or” for “the mice. 1 mg/kg or”, “mg/kg or 4 mg/kg azacitidine” for “mg/kg or 50 mg/kg decitabine”, “4 mg/kg azacitidine was intravenously” for “50 mg/kg decitabine was intravenously”, “A and 2.5 mg/kg or” for “A and 1 mg/kg or”, “4 mg/kg azacitidine were administered” for “50 mg/kg decitabine were administered”, “administration of azacitidine was performed” for “administration of decitabine to the 50 mg/kg group was performed at the date of grouping (6 days after the tumor inoculation), and the administration thereof to the 1 mg/kg group was performed”
as §2, §3, §4, §5

[5] = decitabine 1 mg/kg iv, day 6 after tumor inoculation
[6] = decitabine 1 mg/kg iv, day 8 after tumor inoculation
[7] = decitabine 1 mg/kg iv, day 10 after tumor inoculation
[8] = decitabine 1 mg/kg iv, day 13 after tumor inoculation
[9] = decitabine 1 mg/kg iv, day 15 after tumor inoculation
[10] = decitabine 1 mg/kg iv, day 17 after tumor inoculation
[11] = decitabine 50 mg/kg iv, day 6 after tumor inoculation
[12] = decitabine 50 mg/kg iv, day 8 after tumor inoculation
[13] = decitabine 50 mg/kg iv, day 10 after tumor inoculation
[14] = decitabine 50 mg/kg iv, day 13 after tumor inoculation
[15] = decitabine 50 mg/kg iv, day 15 after tumor inoculation
[16] = decitabine 50 mg/kg iv, day 17 after tumor inoculation
[17] = azacitidine 4 mg/kg iv, day 6 after tumor inoculation
[18] = azacitidine 4 mg/kg iv, day 8 after tumor inoculation
[19] = azacitidine 4 mg/kg iv, day 10 after tumor inoculation
[20] = azacitidine 4 mg/kg iv, day 13 after tumor inoculation
[21] = azacitidine 4 mg/kg iv, day 15 after tumor inoculation
[22] = azacitidine 4 mg/kg iv, day 17 after tumor inoculation
[23] = Compound A 25 mg/kg oral, day 6 after tumor inoculation
[24] = Compound A 25 mg/kg oral, day 8 after tumor inoculation
[25] = Compound A 25 mg/kg oral, day 10 after tumor inoculation
[26] = Compound A 25 mg/kg oral, day 13 after tumor inoculation
[27] = Compound A 25 mg/kg oral, day 15 after tumor inoculation
[28] = Compound A 25 mg/kg oral, day 17 after tumor inoculation
[29] = Compound A 50 mg/kg oral, day 6 after tumor inoculation
[30] = Compound A 50 mg/kg oral, day 8 after tumor inoculation
[31] = Compound A 50 mg/kg oral, day 10 after tumor inoculation
[32] = Compound A 50 mg/kg oral, day 13 after tumor inoculation
[33] = Compound A 50 mg/kg oral, day 15 after tumor inoculation
[34] = Compound A 50 mg/kg oral, day 17 after tumor inoculation

Nc1ncn([C@H]2C[C@H](O)[C@@H](CO)O2)c(=O)n1 [Decitabine, 4-amino-1-(2-deoxy-β-D-erythro-pentofuranosyl)-1,3,5-triazin-2(1H)-one, reference compound]
TGI (%) ([1]; decitabine 1 mg/kg iv): 38%
Estimated tumor volume, average [1, 5]: 144 mm^3
Estimated tumor volume, average [1, 6]: 228 mm^3
Estimated tumor volume, average [1, 7]: 327 mm^3
Estimated tumor volume, average [1, 8]: 585 mm^3
Estimated tumor volume, average [1, 9]: 901 mm^3
Estimated tumor volume, average [1, 10]: 1441 mm^3
TGI (%) ([1]; decitabine 50 mg/kg iv): 14%
Estimated tumor volume, average [1, 11]: 145 mm^3
Estimated tumor volume, average [1, 12]: 206 mm^3
Estimated tumor volume, average [1, 13]: 365 mm^3
Estimated tumor volume, average [1, 14]: 732 mm^3
Estimated tumor volume, average [1, 15]: 1175 mm^3
Estimated tumor volume, average [1, 16]: 1997 mm^3
Body weight change (%), average [2, 5]: 0.0%
Body weight change (%), average [2, 6]: 2.6%
Body weight change (%), average [2, 7]: 2.5%
Body weight change (%), average [2, 8]: 7.8%
Body weight change (%), average [2, 9]: 11.5%
Body weight change (%), average [2, 10]: 14.3%
Body weight change (%), average [2, 11]: 0.0%
Body weight change (%), average [2, 12]: 3.7%
Body weight change (%), average [2, 13]: 6.0%
Body weight change (%), average [2, 14]: 9.6%
Body weight change (%), average [2, 15]: 10.3%
Body weight change (%), average [2, 16]: 14.6%

Nc1ncn([C@@H]2O[C@H](CO)[C@@H](O)[C@H]2O)c(=O)n1 [Azacitidine, 4-amino-1-β-D-ribofuranosyl-1,3,5-triazin-2(1H)-one, reference compound]
TGI (%) ([3]; azacitidine 4 mg/kg iv): 28%
Estimated tumor volume, average [3, 17]: 115 mm^3
Estimated tumor volume, average [3, 18]: 226 mm^3
Estimated tumor volume, average [3, 19]: 334 mm^3
Estimated tumor volume, average [3, 20]: 637 mm^3
Estimated tumor volume, average [3, 21]: 1359 mm^3
Estimated tumor volume, average [3, 22]: 1855 mm^3
Body weight change (%), average [4, 17]: 0.0%
Body weight change (%), average [4, 18]: −0.2%
Body weight change (%), average [4, 19]: −0.4%
Body weight change (%), average [4, 20]: 5.4%
Body weight change (%), average [4, 21]: 8.8%
Body weight change (%), average [4, 22]: 12.1%

CC1(C)CCC2(CC1)N[C@@H](C(=O)N[C@@H]1CC[C@@H](C(N)=O)OC1)[C@H](c1ccnc(Cl)c1F)[C@]21C(=O)Nc2cc(Cl)ccc21.Cc1ccc(S(=O)(=O)O)cc1 [Compound A, (3′R,4′S,5′R)—N-[(3R,6S)-6-carbamoyltetrahydro-2H-pyran-3-yl]-6″-chloro-4′-(2-chloro-3-fluoropyridin-4-yl)-4,4-dimethyl-2″-oxo-1″,2″-dihydrodispiro[cyclohexane-1,2′-pyrrolidine-3′,3″-indole]-5′-carboxamide p-toluenesulfonate]
TGI (%) ([3]; Compound A 25 mg/kg oral): 34%
Estimated tumor volume, average [3, 23]: 118 mm^3
Estimated tumor volume, average [3, 24]: 269 mm^3
Estimated tumor volume, average [3, 25]: 418 mm^3
Estimated tumor volume, average [3, 26]: 834 mm^3
Estimated tumor volume, average [3, 27]: 1346 mm^3
Estimated tumor volume, average [3, 28]: 1697 mm^3
TGI (%) ([3]; Compound A 50 mg/kg oral): 72%
Estimated tumor volume, average [3, 29]: 116 mm^3
Estimated tumor volume, average [3, 30]: 180 mm^3
Estimated tumor volume, average [3, 31]: 197 mm^3
Estimated tumor volume, average [3, 32]: 364 mm^3
Estimated tumor volume, average [3, 33]: 545 mm^3
Estimated tumor volume, average [3, 34]: 721 mm^3
Body weight change (%), average [4, 23]: 0.0%
Body weight change (%), average [4, 24]: 2.5%
Body weight change (%), average [4, 25]: 3.7%
Body weight change (%), average [4, 26]: 9.0%
Body weight change (%), average [4, 27]: 10.8%
Body weight change (%), average [4, 28]: 13.8%
Body weight change (%), average [4, 29]: 0.0%
Body weight change (%), average [4, 30]: 1.7%
Body weight change (%), average [4, 31]: 4.4%
Body weight change (%), average [4, 32]: 8.7%
Body weight change (%), average [4, 33]: 8.9%
Body weight change (%), average [4, 34]: 10.7%
TGI (%) ([1]; Compound A 25 mg/kg oral): 22%
Estimated tumor volume, average [1, 23]: 147 mm^3
Estimated tumor volume, average [1, 24]: 257 mm^3
Estimated tumor volume, average [1, 25]: 388 mm^3
Estimated tumor volume, average [1, 26]: 876 mm^3
Estimated tumor volume, average [1, 27]: 1213 mm^3
Estimated tumor volume, average [1, 28]: 1825 mm^3
TGI (%) ([1]; Compound A 50 mg/kg oral): 76%
Estimated tumor volume, average [1, 29]: 143 mm^3
Estimated tumor volume, average [1, 30]: 227 mm^3
Estimated tumor volume, average [1, 31]: 170 mm^3
Estimated tumor volume, average [1, 32]: 310 mm^3
Estimated tumor volume, average [1, 33]: 407 mm^3
Estimated tumor volume, average [1, 34]: 554 mm^3
Body weight change (%), average [2, 23]: 0.0%
Body weight change (%), average [2, 24]: 2.3%
Body weight change (%), average [2, 25]: 2.0%
Body weight change (%), average [2, 26]: 8.0%
Body weight change (%), average [2, 27]: 8.5%
Body weight change (%), average [2, 28]: 10.3%
Body weight change (%), average [2, 29]: 0.0%
Body weight change (%), average [2, 30]: 1.7%
Body weight change (%), average [2, 31]: 2.4%
Body weight change (%), average [2, 32]: 7.4%
Body weight change (%), average [2, 33]: 6.2%
Body weight change (%), average [2, 34]: 7.2%
